Reference: patent publication US4108991A, “N-aminosulfenyl derivatives of aldicarb” (priority 1976, dated 1978)

What was measured:
Mexican bean beetle [1] = experiment: Systemic activity, soil-watering, Mexican bean beetle; assay type: in vivo, Epilachna varivestis Muls.; conditions: Epilachna varivestis, 48 h, systemic, BB, read-out: Percent Kill
Procedure: (§1) Initial Contact Activity: One half gram of test compound was dissolved in 40 ml of acetone and this solution was dispersed in 360 ml of water containing one drop of isooctylphenyl polyethoxyethanol. Aliquots of this solution, which corresponds to 1250 ppm of active ingredient, were diluted with an appropriate amount of water to provide solutions containing various concentrations of active ingredient. Test organisms and techniques were as follows: The activity against the Mexican bean beetle (Epilachna varivestis Muls.) and the southern armyworm (Spodoptera eridania [Cram.]) was evaluated by dipping the leaves of pinto bean plants into the test solution and infesting the leaves with the appropriate immature-form insects when the foiliage had dried; the activity against the pea aphid (Acyrthosiphon pisum [Harris]) was evaluated on broad bean plants whose leaves were dipped before infestation with adult aphids; the activity against two-sotted spider mites (Tetranychus urticae Koch) was evaluated on pinto bean plants whose leaves were dipped after infestation with adult mites; the activity against the milkweed bug (Oncopeltus fasciatus [Dallas]), and the plum curculio (Conotrachelus nenuphar [Herbst]) was evaluated by spraying the test solutions into glass dishes or jars containing the adult insects; the activity against the confused flour beetle (Tribolium confusum duVal) was evaluated by introducing the insects into glass dishes which had been previously sprayed with test solution and allowed to dry. All organisms in the test were maintained in a holding room at 80° F and 50% relative humidity for an exposure period of 48 hours. At the end of this time, the dead and living insects or mites were counted, and the percent kill was calculated.
(§2) Systemic Activity: Systemic activity was measured using a soil-watering technique. Test organisms were Mexican bean beetle, southern armyworm, pea aphid, and mites on plants as described above in this Example. With appropriate precautions to avoid contact of the solution with the test plant surfaces, 25 ml of a test solution, prepared as above to contain the desired amount of active ingredient, were poured evenly over the surface of the soil in which the plant was growing. The treated plants were maintained under normal growing conditions for three days to permit translocation of the toxicant, after which the leaves were infested. Two days after infestation, counts of living and dead insects were made.

Two-spotted spider mite [2] = experiment: Initial contact activity, leaf dip, two-spotted spider mite; assay type: in vivo, Tetranychus urticae Koch; conditions: Tetranychus urticae, foliar, 48 h, initial, SM, 48 hours, read-out: Percent Kill
Procedure: as §1

Mexican bean beetle [3] = experiment: Initial contact activity, leaf dip, Mexican bean beetle; assay type: in vivo, Epilachna varivestis Muls.; conditions: Epilachna varivestis, foliar, 48 h, initial, BB, 48 hours, read-out: Percent Kill
Procedure: as §1

Pea aphid [4] = experiment: Residual (7-day) contact activity, pea aphid; assay type: in vivo, Acyrthosiphon pisum [Harris]; conditions: Acyrthosiphon pisum, 168 h
Procedure: as §1
(§3) Residual Contact Activity: The residual contact activity of the compounds was determined on the same organisms using the techniques described above, except that in each case the treated surface was allowed to dry and was exposed to normal light and air for seven days before introduction of the mites or insects.

Pea aphid [5] = experiment: Systemic activity, soil-watering, pea aphid; assay type: in vivo, Acyrthosiphon pisum [Harris]; conditions: Acyrthosiphon pisum, 48 h, systemic, PA, read-out: Percent Kill
Procedure: as §1, §2

Milkweed bug [6] = experiment: Initial contact activity, spray, milkweed bug; assay type: in vivo, Oncopeltus fasciatus [Dallas]; conditions: Oncopeltus fasciatus, 48 h, initial, MWB, 48 hours, read-out: Percent Kill
Procedure: as §1

Two-spotted spider mite [7] = experiment: Residual (7-day) contact activity, two-spotted spider mite; assay type: in vivo, Tetranychus urticae Koch; conditions: Tetranychus urticae, 168 h
Procedure: as §1, §3

Plum curculio = experiment: Residual (7-day) contact activity, plum curculio; assay type: in vivo, Conotrachelus nenuphar [Herbst]; conditions: Conotrachelus nenuphar, 168 h, read-out: Percent Kill
Procedure: as §1, §3

Granary Weevil = experiment: Initial contact activity, granary weevil; assay type: in vivo; conditions: Sitophilus granarius, 48 h, initial, GW, 48 hours, read-out: Percent Kill
Milkweed bug [8] = experiment: Residual (7-day) contact activity, milkweed bug; assay type: in vivo, Oncopeltus fasciatus [Dallas]; conditions: Oncopeltus fasciatus, 168 h
Procedure: as §1, §3

Southern armyworm = experiment: Initial contact activity, leaf dip, southern armyworm; assay type: in vivo, Spodoptera eridania [Cram.]; conditions: Spodoptera eridania, foliar, 48 h, initial, AW, 48 hours, read-out: Percent Kill
Procedure: as §1

CSC(C)(C)C=NOC(=O)N(C)SN(C)C [Example IV, 2-Methyl-2-(methylthio)propanal O-[(dimethylaminosulfenyl)-(methyl)carbamoyl]oxime]
mortality at 39 ppm (Mexican bean beetle [1]; 39 PPM): 100%
mortality at 312 ppm (Mexican bean beetle [1]; 312 PPM): 100%
mortality at 5 ppm (Two-spotted spider mite [2]; 5 PPM): 17%
mortality at 10 ppm (Two-spotted spider mite [2]; 10 PPM): 36%
mortality at 20 ppm (Two-spotted spider mite [2]; 20 PPM): 83%
mortality at 39 ppm (Two-spotted spider mite [2]; 39 PPM): 100%
mortality at 156 ppm (Two-spotted spider mite [2]; 156 PPM): 0%
mortality at 1250 ppm (Two-spotted spider mite [2]; 1250 PPM): 100%
mortality at 20 ppm (Mexican bean beetle [3]; 20 PPM): 5%
mortality at 39 ppm (Mexican bean beetle [3]; 39 PPM): 6%
mortality at 156 ppm (Mexican bean beetle [3]; 156 PPM): 39%
mortality at 1250 ppm (Mexican bean beetle [3]; 1250 PPM): 100%
mortality at 625 ppm (Pea aphid [4]; read-out: Percent Kill, residual 7-day, PA, 625 PPM): 5%
mortality at 312 ppm (Pea aphid [4]; residual 7-day, PA, 312 PPM, read-out: Percent Kill): 10%
mortality at 1250 ppm (Pea aphid [4]; residual 7-day, PA, 1250 PPM, read-out: Percent Kill): 5%
mortality at 5 ppm (Pea aphid [5]; 5 PPM): 100%
mortality at 10 ppm (Pea aphid [5]; 10 PPM): 100%
mortality at 312 ppm (Pea aphid [5]; 312 PPM): 100%
mortality at 5 ppm (Milkweed bug [6]; 5 PPM): 20%
mortality at 10 ppm (Milkweed bug [6]; 10 PPM): 26%
mortality at 20 ppm (Milkweed bug [6]; 20 PPM): 43%
mortality at 1250 ppm (Milkweed bug [6]; 1250 PPM): 100%
mortality at 625 ppm (Two-spotted spider mite [7]; read-out: Percent Kill, residual 7-day, SM, 625 PPM): 0%
mortality at 39 ppm (Two-spotted spider mite [7]; residual 7-day, SM, 39 PPM, read-out: Percent Kill): 18%
mortality at 156 ppm (Two-spotted spider mite [7]; residual 7-day, SM, 156 PPM, read-out: Percent Kill): 52%
mortality at 1250 ppm (Two-spotted spider mite [7]; residual 7-day, SM, 1250 PPM, read-out: Percent Kill): 100%
mortality at 625 ppm (Plum curculio): 0%
mortality at 1250 ppm (Plum curculio; residual 7-day, PC, 1250 PPM): 0%
mortality at 20 ppm (Granary Weevil; 20 PPM): 0%
mortality at 39 ppm (Granary Weevil; 39 PPM): 5%
mortality at 156 ppm (Granary Weevil; 156 PPM): 50%
mortality at 1250 ppm (Granary Weevil; 1250 PPM): 100%
mortality at 625 ppm (Milkweed bug [8]; read-out: Percent Kill, residual 7-day, MWB, 625 PPM): 100%
mortality at 312 ppm (Milkweed bug [8]; residual 7-day, MWB, 312 PPM, read-out: Percent Kill): 65%
mortality at 1250 ppm (Milkweed bug [8]; residual 7-day, MWB, 1250 PPM, read-out: Percent Kill): 100%
mortality at 156 ppm (Southern armyworm; 156 PPM): 0%
mortality at 312 ppm (Southern armyworm; 312 PPM): 0%
mortality at 625 ppm (Southern armyworm; 625 PPM): 0%
mortality at 1250 ppm (Southern armyworm; 1250 PPM): 12%
